ChEMBL document CHEMBL5465560, “Selectivity Literature for EUbOPEN Chemogenomic Library” (2024)
One block for each compound: values may come before it.

Assays:
[1] = target: T1, Ephrin type-B receptor 2 (Homo sapiens) (UniProt P29323); settings: at 10 µM
T1 sequence (whole entry): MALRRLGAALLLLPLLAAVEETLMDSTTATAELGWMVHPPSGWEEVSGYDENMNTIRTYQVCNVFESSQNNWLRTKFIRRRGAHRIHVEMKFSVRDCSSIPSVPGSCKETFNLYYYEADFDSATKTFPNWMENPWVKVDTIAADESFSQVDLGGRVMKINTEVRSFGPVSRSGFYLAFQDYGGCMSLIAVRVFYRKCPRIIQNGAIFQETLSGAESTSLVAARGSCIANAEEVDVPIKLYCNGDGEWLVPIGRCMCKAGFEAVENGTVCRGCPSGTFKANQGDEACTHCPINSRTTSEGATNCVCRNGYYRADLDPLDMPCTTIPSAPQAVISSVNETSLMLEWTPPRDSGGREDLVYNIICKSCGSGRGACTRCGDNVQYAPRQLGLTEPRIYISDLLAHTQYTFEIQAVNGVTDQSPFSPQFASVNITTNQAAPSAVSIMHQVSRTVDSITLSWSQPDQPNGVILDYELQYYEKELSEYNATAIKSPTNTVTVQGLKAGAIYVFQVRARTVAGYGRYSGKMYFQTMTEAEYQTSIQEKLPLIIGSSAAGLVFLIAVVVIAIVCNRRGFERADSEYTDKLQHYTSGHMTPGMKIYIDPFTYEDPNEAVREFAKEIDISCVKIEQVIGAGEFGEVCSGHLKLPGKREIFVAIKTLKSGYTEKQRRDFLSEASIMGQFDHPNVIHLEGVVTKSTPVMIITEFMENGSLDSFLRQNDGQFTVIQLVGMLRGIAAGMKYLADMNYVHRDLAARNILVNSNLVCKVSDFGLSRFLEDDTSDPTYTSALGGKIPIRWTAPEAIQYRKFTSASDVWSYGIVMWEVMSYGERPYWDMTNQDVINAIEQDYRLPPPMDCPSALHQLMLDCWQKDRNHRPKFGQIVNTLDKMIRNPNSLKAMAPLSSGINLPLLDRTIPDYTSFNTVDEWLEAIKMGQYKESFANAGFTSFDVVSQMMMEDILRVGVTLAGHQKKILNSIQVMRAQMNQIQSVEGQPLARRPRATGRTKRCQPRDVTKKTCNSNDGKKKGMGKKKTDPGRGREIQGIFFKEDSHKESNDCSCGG

[2] = target: T2, NUAK family SNF1-like kinase 1 (Homo sapiens) (UniProt O60285); assay: Selectivity interaction (Kinase panel (literature)) EUB0001199aCl NUAK1; settings: at 1 µM
T2 sequence (whole entry): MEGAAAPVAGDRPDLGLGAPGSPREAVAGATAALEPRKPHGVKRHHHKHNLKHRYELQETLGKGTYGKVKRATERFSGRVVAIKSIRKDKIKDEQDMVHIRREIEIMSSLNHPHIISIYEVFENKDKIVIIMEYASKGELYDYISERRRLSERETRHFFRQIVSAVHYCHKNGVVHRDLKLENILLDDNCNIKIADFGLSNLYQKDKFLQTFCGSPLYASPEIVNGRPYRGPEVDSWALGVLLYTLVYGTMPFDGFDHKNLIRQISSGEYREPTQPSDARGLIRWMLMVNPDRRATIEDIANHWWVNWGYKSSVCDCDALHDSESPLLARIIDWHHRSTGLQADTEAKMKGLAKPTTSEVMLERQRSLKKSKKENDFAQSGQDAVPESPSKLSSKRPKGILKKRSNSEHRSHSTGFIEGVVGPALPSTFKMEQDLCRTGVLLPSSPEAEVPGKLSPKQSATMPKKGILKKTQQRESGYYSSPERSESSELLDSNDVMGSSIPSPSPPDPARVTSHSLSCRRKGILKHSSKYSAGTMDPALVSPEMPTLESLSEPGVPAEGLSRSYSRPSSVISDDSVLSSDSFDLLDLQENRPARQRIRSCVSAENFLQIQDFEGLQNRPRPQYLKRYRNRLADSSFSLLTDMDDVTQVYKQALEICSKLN

[3] = target: T3, Serine/threonine-protein kinase D1 (Homo sapiens) (UniProt Q15139); assay: Selectivity interaction (KinomeScan (DiscoverX)) EUB0000607a PRKD1; settings: at 10 µM
T3 sequence (whole entry): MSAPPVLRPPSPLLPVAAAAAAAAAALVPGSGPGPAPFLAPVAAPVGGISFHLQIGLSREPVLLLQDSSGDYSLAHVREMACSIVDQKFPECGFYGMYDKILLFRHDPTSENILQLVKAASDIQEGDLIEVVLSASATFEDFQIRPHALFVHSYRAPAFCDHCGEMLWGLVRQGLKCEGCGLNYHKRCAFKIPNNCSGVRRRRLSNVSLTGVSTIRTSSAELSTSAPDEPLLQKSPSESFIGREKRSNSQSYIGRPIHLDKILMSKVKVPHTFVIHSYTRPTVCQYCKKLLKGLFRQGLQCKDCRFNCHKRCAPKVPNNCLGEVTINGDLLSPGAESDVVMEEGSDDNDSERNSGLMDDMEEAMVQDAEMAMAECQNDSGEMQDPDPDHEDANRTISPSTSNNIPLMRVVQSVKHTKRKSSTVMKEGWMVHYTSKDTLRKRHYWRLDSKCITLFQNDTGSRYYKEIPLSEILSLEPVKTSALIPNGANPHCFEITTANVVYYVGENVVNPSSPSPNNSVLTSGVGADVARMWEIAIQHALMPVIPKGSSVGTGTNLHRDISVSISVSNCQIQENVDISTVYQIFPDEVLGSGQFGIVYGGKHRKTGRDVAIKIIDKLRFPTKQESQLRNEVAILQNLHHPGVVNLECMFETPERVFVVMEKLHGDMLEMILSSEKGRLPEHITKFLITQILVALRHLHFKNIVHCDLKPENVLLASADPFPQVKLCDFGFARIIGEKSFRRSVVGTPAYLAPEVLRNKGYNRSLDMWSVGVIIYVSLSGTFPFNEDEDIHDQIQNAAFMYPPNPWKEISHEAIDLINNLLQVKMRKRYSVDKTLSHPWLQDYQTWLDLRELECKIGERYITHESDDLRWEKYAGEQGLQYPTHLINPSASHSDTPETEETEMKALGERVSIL

[4] = target: Cyclin-dependent kinase 2 (Homo sapiens, UniProt P24941); assay: Selectivity interaction (KinomeScan (DiscoverX)) EUB0000595a CDK2; settings: at 10 µM
[5] = target: High affinity nerve growth factor receptor (Homo sapiens, UniProt P04629)
Chain of High affinity nerve growth factor receptor (P04629 whole entry): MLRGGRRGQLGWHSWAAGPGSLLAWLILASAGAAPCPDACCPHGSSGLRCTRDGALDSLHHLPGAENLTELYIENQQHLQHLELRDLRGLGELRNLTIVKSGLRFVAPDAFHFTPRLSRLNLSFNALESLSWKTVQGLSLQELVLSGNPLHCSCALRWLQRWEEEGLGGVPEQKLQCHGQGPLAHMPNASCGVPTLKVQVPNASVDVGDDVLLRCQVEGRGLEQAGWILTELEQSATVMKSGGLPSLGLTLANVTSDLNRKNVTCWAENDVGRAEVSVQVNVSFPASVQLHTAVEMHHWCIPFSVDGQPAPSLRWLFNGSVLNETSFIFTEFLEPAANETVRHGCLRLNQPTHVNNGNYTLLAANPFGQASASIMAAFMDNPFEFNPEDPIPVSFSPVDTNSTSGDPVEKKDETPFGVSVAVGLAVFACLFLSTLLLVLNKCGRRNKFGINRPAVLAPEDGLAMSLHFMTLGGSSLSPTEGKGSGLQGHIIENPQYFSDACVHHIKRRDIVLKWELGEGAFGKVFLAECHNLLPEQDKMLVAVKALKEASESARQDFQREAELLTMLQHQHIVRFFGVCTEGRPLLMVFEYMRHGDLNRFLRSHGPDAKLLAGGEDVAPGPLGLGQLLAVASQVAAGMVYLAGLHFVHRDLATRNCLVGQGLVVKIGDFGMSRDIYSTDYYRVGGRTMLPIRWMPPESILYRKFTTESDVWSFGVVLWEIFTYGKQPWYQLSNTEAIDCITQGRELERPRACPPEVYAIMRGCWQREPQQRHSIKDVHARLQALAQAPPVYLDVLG

[6] = target: Ephrin type-A receptor 5 (Homo sapiens) (UniProt P54756); assay: Selectivity interaction (ProQinase) EUB0000171b EPHA5
Chain of Ephrin type-A receptor 5 (Homo sapiens) (P54756 whole entry): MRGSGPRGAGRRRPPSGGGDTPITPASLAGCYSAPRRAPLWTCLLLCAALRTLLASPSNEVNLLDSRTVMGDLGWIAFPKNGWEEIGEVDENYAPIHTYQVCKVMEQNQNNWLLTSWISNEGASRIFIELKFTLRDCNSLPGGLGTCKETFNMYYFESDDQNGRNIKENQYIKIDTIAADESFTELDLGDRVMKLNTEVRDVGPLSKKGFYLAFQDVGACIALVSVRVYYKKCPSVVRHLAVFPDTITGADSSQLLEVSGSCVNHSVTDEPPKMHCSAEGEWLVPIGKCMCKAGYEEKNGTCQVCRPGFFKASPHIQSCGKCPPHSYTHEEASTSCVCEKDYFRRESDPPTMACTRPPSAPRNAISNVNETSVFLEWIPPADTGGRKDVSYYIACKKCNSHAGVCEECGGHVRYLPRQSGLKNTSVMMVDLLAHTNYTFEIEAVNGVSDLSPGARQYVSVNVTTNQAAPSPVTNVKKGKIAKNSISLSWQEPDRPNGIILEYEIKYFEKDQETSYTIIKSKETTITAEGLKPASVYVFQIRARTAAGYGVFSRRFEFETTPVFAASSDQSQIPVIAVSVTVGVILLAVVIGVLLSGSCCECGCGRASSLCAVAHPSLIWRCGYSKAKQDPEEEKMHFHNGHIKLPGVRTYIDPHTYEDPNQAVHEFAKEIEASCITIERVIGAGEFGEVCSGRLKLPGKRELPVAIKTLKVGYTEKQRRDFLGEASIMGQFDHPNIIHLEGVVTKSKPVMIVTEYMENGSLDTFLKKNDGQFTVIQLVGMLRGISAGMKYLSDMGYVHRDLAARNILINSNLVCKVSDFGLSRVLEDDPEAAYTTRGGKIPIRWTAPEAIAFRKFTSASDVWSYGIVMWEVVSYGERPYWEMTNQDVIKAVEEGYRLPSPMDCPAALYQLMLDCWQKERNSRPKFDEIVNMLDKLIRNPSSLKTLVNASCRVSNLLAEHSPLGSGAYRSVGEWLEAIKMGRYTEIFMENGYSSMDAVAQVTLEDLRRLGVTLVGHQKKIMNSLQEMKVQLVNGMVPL

% of inhibition [2]: -6%
SMILES: CN1Cc2nccc(-c3cn(C)nc3-c3ccc(F)cc3)c2C1=O

% of control ([6]; at 1 µM): 94% | % of control ([6]; at 5 µM): 87%
SMILES: C=CC(=O)Nc1cccc(C(=O)Nc2ccc(Nc3cc(-c4[nH]c(SC)nc4C)ccn3)cc2)c1

Continued, compound first:

SMILES: CCN(CC)CCCCNc1ncc2cc(-c3cc(OC)cc(OC)c3)c(NC(=O)NC(C)(C)C)nc2n1
% of control [1]: 100%

SMILES: CNC(=O)Nc1ccc(-c2nc(N3CC4CCC(C3)O4)c3cnn(C4CCC5(CC4)OCCO5)c3n2)cc1
% of control [3]: 100%

SMILES: COCC(=O)NC/C=C/c1ccc2ncnc(Nc3ccc(Oc4ccc(C)nc4)c(C)c3)c2c1 [CP-724714]
% of control [4]: 92%

SMILES: CCc1cccc(CC)c1NC(=O)c1nn(C)c2c1CCc1cnc(Nc3ccc(C(=O)NC4CCN(C)CC4)cc3OC(F)(F)F)nc1-2
IC50 [5]: > 10 µM
